# From publication PMC9271885 (eBioMedicine, 2022)
# Several values for one entry are separate records, joined by “and”; a condition that tells them apart may be missing. Equal entries are not always repeated. Where two headings read alike, the source gives them in different places.
# Assay: Quantification of TIZ in plasma, lung and nasal turbinates of hamsters (HPLC-UV)
# Type: in vivo, Syrian hamsters
# Procedure: Quantification of TIZ in plasma and lung tissues was performed by high-performance liquid chromatography with UV detection method (Alliance 2695, Waters, USA) with a lower limit of quantification of 0.01µg/mL. The mobile phase consisted of 0.1% FA in water and 0.1% of FA in ACN (65:35, v/v). The chromatographic separation was achieved using an isocratic mode with an Xbridge BEH C18 2.5μm 4.6 × 100mm column. Peak area was quantified at 340nm using the Waters 2489 detector. TIZ was extracted by a simple protein precipitation method, using acetonitrile for plasma and ice-cold acetonitrile for clarified lung homogenates. Briefly, 200µL of samples matrix was added to 1000µL of acetonitrile solution containing the internal standard (thiopental), then vortexed for 2min followed by centrifugation for 10min at 4°C. The supernatant medium was evaporated under vacuum, then transferred to a 1.5mL Eppendorf tube. The dried residue was reconstituted with 100µl of ACN:water (50:50), vortexed for 30 seconds and centrifuged again for 10min at 4°C. The supernatant was transferred to an autosampler and 50µL was injected.
# We used tissues from infected animals sacrificed at 3 dpi following multiple administration (animals from Figure 3); an additional group of uninfected animals treated with a single dose of 13.5mg was used as control. TIZ concentration in plasma and in lung was quantified at 1, 2 and 4 hours post treatment for the single dose analysis (group of 3 animals) and at 12 hours after the last administration for the multiple dose analysis (group of 6 animals).
# [1] = multiple dose NTZ 500mg/kg/day BID oral, at 3 dpi, 12 h (trough), individual values
# [2] = multiple dose NTZ 750mg/kg/day TID oral, at 3 dpi, 12 hours (trough), individual values
# [3] = multiple dose, infected animals, nitazoxanide per os 500 mg/kg/day BID, 12h post-administration, individual animals
# [4] = multiple dose, infected animals, nitazoxanide per os 750 mg/kg/day TID, 12h post-administration, individual animals
# [5] = single dose nitazoxanide 13.5mg, uninfected animals, 1h post-administration, individual animals
# [6] = single dose nitazoxanide 13.5mg, uninfected animals, 2h post-administration, individual animals
# [7] = single dose nitazoxanide 13.5mg, uninfected animals, 4h post-administration, individual animals
# [8] = single oral dose 13.5mg NTZ, uninfected hamsters, 1 h post-treatment, individual values
# [9] = single oral dose 13.5mg NTZ, uninfected hamsters, 2 h post-treatment, individual values
# [10] = single oral dose 13.5mg NTZ, uninfected hamsters, 4 h post-treatment, individual values
structure (smiles),measurement,setting,value
"O=C(Nc1ncc([N+](=O)[O-])s1)c1ccccc1O [TIZ, tizoxanide]",Kp at 12 h,"Syrian, hamster, in vivo, 2.8 mg/kg/day TID, multiple dose, infected animals, nitazoxanide IN 2,8 mg/kg/day TID, 12h post-administration, individual animals, read-out: Lung to plasma ratio",12.8
same,concentration at 12 h,"Syrian, hamster, in vivo, 2.8 mg/kg/day TID, multiple dose, infected animals, nitazoxanide IN 2,8 mg/kg/day TID, 12h post-administration, individual animals, read-out: Tizoxanide concentration in blood",8 ng/mL
same,concentration at 12 h,"Syrian, hamster, in vivo, 2.8 mg/kg/day, multiple dose, infected animals, nitazoxanide IN 2,8 mg/kg/day TID, 12h post-administration, individual animals, read-out: Tizoxanide concentration in blood",30 nM
same,concentration at 12 h,"Syrian, hamster, in vivo, 2.8 mg/kg/day, multiple dose, infected animals, nitazoxanide IN 2,8 mg/kg/day TID, 12h post-administration, individual animals, read-out: Tizoxanide concentration in lungs",11.7 ng/mL and 40 nM
same,concentration at 12 h,"Syrian, hamster, in vivo, 750 mg/kg/day TID, multiple dose, infected animals, nitazoxanide per os 750 mg/kg/day TID, 12h post-administration, individual animals, read-out: Tizoxanide concentration in lungs",40 nM
same,Kp at 12 h,"hamster, in vivo, 2.8 mg/kg/day, multiple dose NTZ 2.8mg/kg/day TID intranasal, at 3 dpi, 12 hours (trough), read-out: L/p ratio",1280
same,concentration at 12 h,"hamster, in vivo, 2.8 mg/kg/day, multiple dose, infected animals, nitazoxanide IN 2,8 mg/kg/day TID, 12h post-administration, individual animals, read-out: Tizoxanide concentration in lungs",103 ng/g
same,concentration at 12 h,"hamster, in vivo, 2.8 mg/kg/day, multiple dose, infected animals, nitazoxanide IN 2,8 mg/kg/day TID, 12h post-administration, individual animals, read-out: Tizoxanide concentration in nasal turbinates",14.8 ng/mL and 60 nM
same,Kp,"hamster, in vivo, 13.5 mg, after single-dose administration (13.5mg NTZ), hamsters, read-out: lung/plasma ratio",0.022 to 0.048
same,concentration at 1 h,"hamster, in vivo, 13.5 mg, single dose nitazoxanide 13.5mg, uninfected animals, 1h post-administration, individual animals, read-out: Tizoxanide concentration in lungs",21.5 ng/mL and 80 nM and 161 ng/g
same,Kp at 2 h,"hamster, in vivo, 13.5 mg, single dose nitazoxanide 13.5mg, uninfected animals, 2h post-administration, individual animals, read-out: Lung to plasma ratio",0.027
same,concentration at 2 h,"hamster, in vivo, 13.5 mg, single dose nitazoxanide 13.5mg, uninfected animals, 2h post-administration, individual animals, read-out: Tizoxanide concentration in lungs",17.1 ng/mL and 60 nM and 132 ng/g
same,Kp at 4 h,"hamster, in vivo, 13.5 mg, single dose nitazoxanide 13.5mg, uninfected animals, 4h post-administration, individual animals, read-out: Lung to plasma ratio",0.042
same,concentration at 4 h,"hamster, in vivo, 13.5 mg, single dose nitazoxanide 13.5mg, uninfected animals, 4h post-administration, individual animals, read-out: Tizoxanide concentration in lungs",8.3 ng/mL and 30 nM and 61 ng/g
same,concentration at 12 h,"hamster, in vivo, 500 mg/kg/day BID, multiple dose NTZ 500mg/kg/day BID oral, infected hamsters at 3 dpi, 12 h after last dose (trough), mean ± SD, read-out: TIZ concentration Plasma",940 ng/mL and 940 nM
same,concentration at 12 h,"hamster, in vivo, 500 mg/kg/day BID, multiple dose, infected animals, nitazoxanide per os 500 mg/kg/day BID, 12h post-administration, individual animals, read-out: Tizoxanide concentration in lungs",8.1 ng/mL and 30 nM and 57 ng/g
same,concentration at 12 h,"hamster, in vivo, 750 mg/kg/day TID, multiple dose NTZ 750mg/kg/day TID oral, infected hamsters at 3 dpi, 12 hours after last dose (trough), mean ± SD, read-out: TIZ concentration Plasma",1490 ng/mL and 1.49 µM
same,concentration at 1 h,"hamster, in vivo, po, 13.5 mg, single oral dose 13.5mg NTZ, uninfected hamsters, 1 h post-treatment, mean ± SD, read-out: TIZ concentration Plasma",5160 ng/mL and 5.16 µM
same,Kp at 2 h,"hamster, in vivo, po, 13.5 mg, single oral dose 13.5mg NTZ, uninfected hamsters, 2 h post-treatment, individual values, read-out: L/p ratio (%)",0.027
same,concentration at 2 h,"hamster, in vivo, po, 13.5 mg, single oral dose 13.5mg NTZ, uninfected hamsters, 2 h post-treatment, mean ± SD, read-out: TIZ concentration Plasma",3390 ng/mL and 3.39 µM
same,Kp at 4 h,"hamster, in vivo, po, 13.5 mg, single oral dose 13.5mg NTZ, uninfected hamsters, 4 h post-treatment, individual values, read-out: L/p ratio (%)",0.042
same,concentration at 4 h,"hamster, in vivo, po, 13.5 mg, single oral dose 13.5mg NTZ, uninfected hamsters, 4 h post-treatment, mean ± SD, read-out: TIZ concentration Plasma",820 ng/mL and 820 nM
same,TIZ concentration Lung (µM/g),"multiple dose NTZ 2.8mg/kg/day TID intranasal, at 3 dpi, 12 hours (trough), individual values",0.39 µM/g and 0.41 µM/g
same,L/p ratio (%),[1],2.7% and 32.8%
same,TIZ concentration Lung (µM/g),[1],0.21 µM/g
same,L/p ratio (%),[2],2.9% and 6.3%
same,TIZ concentration Lung (µM/g),[2],0.28 µM/g and 0.60 µM/g
same,Tizoxanide concentration in lungs,"multiple dose, infected animals, nitazoxanide IN 2,8 mg/kg/day TID, 12h post-administration, individual animals",0.39 µM/g of lung and 11.3 ng/mL and 110 ng/g of lung and 0.41 µM/g of lung
same,Lung to plasma ratio,[3],2.7% and 32.8%
same,Tizoxanide concentration in blood,[3],40 ng/mL and 159 ng/mL and 2131 ng/mL and 2192 ng/mL and 171 ng/mL
same,Tizoxanide concentration in lungs,[3],0.21 µM/g of lung and 10.6 ng/mL and 56 ng/g of lung
same,concentration at 12 h,"multiple dose, infected animals, nitazoxanide per os 500 mg/kg/day BID, 12h post-administration, individual animals, read-out: Tizoxanide concentration in blood",150 nM and 600 nM and 8030 nM and 8260 nM and 640 nM
same,concentration at 12 h,"multiple dose, infected animals, nitazoxanide per os 500 mg/kg/day BID, 12h post-administration, individual animals, read-out: Tizoxanide concentration in lungs",40 nM
same,Lung to plasma ratio,[4],2.9% and 6.3%
same,Tizoxanide concentration in blood,[4],40 ng/mL and 2494 ng/mL and 79 ng/mL and 2205 ng/mL and 1637 ng/mL and 2500 ng/mL
same,Tizoxanide concentration in lungs,[4],9.7 ng/mL and 73 ng/g of lung and 0.28 µM/g of lung and 21.0 ng/mL and 158 ng/g of lung and 0.60 µM/g of lung
same,concentration at 12 h,"multiple dose, infected animals, nitazoxanide per os 750 mg/kg/day TID, 12h post-administration, individual animals, read-out: Tizoxanide concentration in blood",150 nM and 9400 nM and 300 nM and 8310 nM and 6170 nM and 9430 nM
same,concentration at 12 h,"multiple dose, infected animals, nitazoxanide per os 750 mg/kg/day TID, 12h post-administration, individual animals, read-out: Tizoxanide concentration in lungs",80 nM
same,Lung to plasma ratio,[5],4.8% and 2.2%
same,Tizoxanide concentration in blood,[5],3319 ng/mL and 10008 ng/mL and 2151 ng/mL
same,Tizoxanide concentration in lungs,[5],0.61 µM/g of lung and 26.7 ng/mL and 224 ng/g of lung and 0.84 µM/g of lung
same,concentration at 12 h,"single dose nitazoxanide 13.5mg, uninfected animals, 1h post-administration, individual animals, read-out: Tizoxanide concentration in blood",12510 nM and 37730 nM and 8110 nM
same,concentration at 12 h,"single dose nitazoxanide 13.5mg, uninfected animals, 1h post-administration, individual animals, read-out: Tizoxanide concentration in lungs",100 nM
same,Tizoxanide concentration in blood,[6],1477 ng/mL and 3758 ng/mL and 4927 ng/mL
same,Tizoxanide concentration in lungs,[6],0.50 µM/g of lung
same,concentration at 12 h,"single dose nitazoxanide 13.5mg, uninfected animals, 2h post-administration, individual animals, read-out: Tizoxanide concentration in blood",5570 nM and 14170 nM and 18580 nM
same,Tizoxanide concentration in blood,[7],344 ng/mL and 666 ng/mL and 1459 ng/mL
same,Tizoxanide concentration in lungs,[7],0.23 µM/g of lung
same,concentration at 12 h,"single dose nitazoxanide 13.5mg, uninfected animals, 4h post-administration, individual animals, read-out: Tizoxanide concentration in blood",1300 nM and 2510 nM and 5500 nM
same,L/p ratio (%),[8],4.8% and 2.2%
same,TIZ concentration Lung,[8],0.16 µg/g and 0.22 µg/g
same,TIZ concentration Lung (µM/g),[8],0.61 µM/g and 0.84 µM/g
same,TIZ concentration Lung,[9],0.13 µg/g
same,TIZ concentration Lung (µM/g),[9],0.50 µM/g
same,TIZ concentration Lung,[10],0.06 µg/g
same,TIZ concentration Lung (µM/g),[10],0.23 µM/g
